Assay results published in article PMC12535076, “Neurotherapeutic effects of Vutiglabridin as a Paraoxonase-2 modulator in preclinical models of Parkinson’s disease” (Molecular Neurodegeneration, 2025).

Tests used:
[1] = molecular target: T1, P-glycoprotein (P-gp, MDR1) (Homo sapiens, UniProt P08183); experiment: P-glycoprotein (P-gp) efflux assay in cell monolayers; format: in vitro ADME; conditions: MDCKII, MDCKII-hMDR1 and Caco-2 monolayers, with and without P-gp inhibitor GF120918
T1 construct: expressed in transfected cells; host or cells: MDCKII-hMDR1 (canine kidney cells carrying human MDR1); also parental MDCKII and Caco-2 (endogenous human P-gp)
Experimental: P-gp efflux ratio was determined in MDCKII-hMDR1, MDCKII [61], and Caco-2 cell monolayer via LC-MS/MS analysis, in accordance with the standard FDA guideline on transporter-mediated drug interactions. 10 µM of GF120918 was used as P-gp inhibitor. The apical (A-to-B) and basolateral (B-to-A) permeability coefficient (Papp) were measured to yield the efflux ratio.
(a) Measurement of Vuti concentration in octanol and aqueous phase (pH7.4 phosphate buffer) via HPLC. The mean value of three replicates was used, and the limit of quantification (LOQ) value was used to calculate Log D as a log of concentration in the octanol phase divided by the concentration in the aqueous phase. (b) Efflux ratios (Papp(B→A)/Papp(A→B)) of Vuti in three types of cell monolayers, with or without P-glycoprotein (P-gp) inhibitor GF120918. (c) Schematic of 14C-labeling of Vuti. Attachment to the ethoxy group is warranted because it is robustly maintained throughout metabolism. (d) Plasma radioactivity concentration in Sprague-Dawley rats after a single administration of 10 mg/kg of 14C-Vuti (n = 3).

MAO-A = molecular target: T2, MAO-A (Homo sapiens, UniProt P21397); experiment: HRP/Amplex red based MAO-A enzyme activity assay; format: biochemical; conditions: read-out: IC50, MAO-A assay, HRP/AR method
T2 sequence (P21397 1-527): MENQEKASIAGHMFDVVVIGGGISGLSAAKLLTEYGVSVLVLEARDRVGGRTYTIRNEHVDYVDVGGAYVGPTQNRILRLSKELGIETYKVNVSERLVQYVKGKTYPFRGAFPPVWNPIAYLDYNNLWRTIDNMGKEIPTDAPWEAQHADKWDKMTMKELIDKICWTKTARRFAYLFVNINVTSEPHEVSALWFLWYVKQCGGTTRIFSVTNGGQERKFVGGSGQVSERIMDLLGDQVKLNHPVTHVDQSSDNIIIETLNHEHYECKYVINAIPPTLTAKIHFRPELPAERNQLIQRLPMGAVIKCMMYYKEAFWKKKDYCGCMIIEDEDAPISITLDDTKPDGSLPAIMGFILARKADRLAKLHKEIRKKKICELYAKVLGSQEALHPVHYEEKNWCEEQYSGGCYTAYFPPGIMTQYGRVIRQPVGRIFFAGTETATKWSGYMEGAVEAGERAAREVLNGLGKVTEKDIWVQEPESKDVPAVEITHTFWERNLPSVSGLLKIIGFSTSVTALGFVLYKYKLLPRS
Experimental: MAO-A or MAO-B enzyme solutions were prepared by diluting 10 µL of a 2.5 mg/mL MAO-A or MAO-B stock into 10 mL of 50 mM sodium phosphate buffer (pH 7.4). A substrate assay mixture was then prepared by combining benzylamine (for MAO-B) or tyramine (for MAO-A) from a 100 mM stock (200 µL in 10 mL phosphate buffer, final concentration 1 mM) with 100 µL of a 20 mM AR reagent stock (final concentration 0.1 mM) and 100 µL of a 200 U/mL HRP stock (final concentration 1 U/mL) in 10 mL phosphate buffer. […] Next, 50 µL of the substrate assay mixture was added, and the reaction was carried out at 37 °C for 60 min. The production of resorufin was quantified by fluorescence measurement (excitation at 540 nm and emission at 580 nm).

MAO-B = molecular target: T3, MAO-B (Homo sapiens, UniProt P27338); experiment: ROS Glo based MAO-B enzyme activity assay; format: biochemical; conditions: read-out: IC50, MAO-B assay, ROS-Glo method
T3 sequence (P27338 1-520): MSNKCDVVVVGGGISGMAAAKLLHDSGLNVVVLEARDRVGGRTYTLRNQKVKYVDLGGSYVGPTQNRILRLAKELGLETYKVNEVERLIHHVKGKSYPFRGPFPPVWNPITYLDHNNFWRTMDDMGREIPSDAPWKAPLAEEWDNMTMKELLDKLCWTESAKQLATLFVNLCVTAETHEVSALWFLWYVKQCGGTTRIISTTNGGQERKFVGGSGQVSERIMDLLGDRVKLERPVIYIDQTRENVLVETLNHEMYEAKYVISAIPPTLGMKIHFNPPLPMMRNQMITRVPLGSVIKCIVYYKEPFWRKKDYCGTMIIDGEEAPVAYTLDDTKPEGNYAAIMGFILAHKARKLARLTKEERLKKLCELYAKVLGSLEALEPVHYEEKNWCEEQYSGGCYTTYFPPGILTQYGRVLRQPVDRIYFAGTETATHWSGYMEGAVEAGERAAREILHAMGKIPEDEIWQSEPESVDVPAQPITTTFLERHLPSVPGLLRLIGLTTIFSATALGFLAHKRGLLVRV
Experimental: An enzyme solution was prepared by diluting 10 µL of a 2.5 mg/mL MAO-A or MAO-B stock in 10 mL of 50 mM sodium phosphate buffer (pH 7.4). A substrate solution was prepared by diluting 200 µL of a 100 mM benzylamine (or tyramine) stock in 10 mL phosphate buffer to achieve a final concentration of 1 mM. For each 96-well plate experiment, 12.5 µL of a 1× H2O2 probe solution was added to 1 mL of the probe dilution buffer from the ROS Glo™ kit. Separately, 40 µL of cysteine and enhancer were diluted into 4 mL of Luciferin solution. In each well, 49 µL of the enzyme solution was dispensed, followed by 1 µL of the test compound, and incubated for 30 min. […] Next, 10 µL of the H2O2 probe solution was added and incubated for 15 min. […] Luminescence was subsequently recorded using a microplate luminescence reader (SpectraMax i3, Molecular Devices).

T1 sequence (P08183 whole entry): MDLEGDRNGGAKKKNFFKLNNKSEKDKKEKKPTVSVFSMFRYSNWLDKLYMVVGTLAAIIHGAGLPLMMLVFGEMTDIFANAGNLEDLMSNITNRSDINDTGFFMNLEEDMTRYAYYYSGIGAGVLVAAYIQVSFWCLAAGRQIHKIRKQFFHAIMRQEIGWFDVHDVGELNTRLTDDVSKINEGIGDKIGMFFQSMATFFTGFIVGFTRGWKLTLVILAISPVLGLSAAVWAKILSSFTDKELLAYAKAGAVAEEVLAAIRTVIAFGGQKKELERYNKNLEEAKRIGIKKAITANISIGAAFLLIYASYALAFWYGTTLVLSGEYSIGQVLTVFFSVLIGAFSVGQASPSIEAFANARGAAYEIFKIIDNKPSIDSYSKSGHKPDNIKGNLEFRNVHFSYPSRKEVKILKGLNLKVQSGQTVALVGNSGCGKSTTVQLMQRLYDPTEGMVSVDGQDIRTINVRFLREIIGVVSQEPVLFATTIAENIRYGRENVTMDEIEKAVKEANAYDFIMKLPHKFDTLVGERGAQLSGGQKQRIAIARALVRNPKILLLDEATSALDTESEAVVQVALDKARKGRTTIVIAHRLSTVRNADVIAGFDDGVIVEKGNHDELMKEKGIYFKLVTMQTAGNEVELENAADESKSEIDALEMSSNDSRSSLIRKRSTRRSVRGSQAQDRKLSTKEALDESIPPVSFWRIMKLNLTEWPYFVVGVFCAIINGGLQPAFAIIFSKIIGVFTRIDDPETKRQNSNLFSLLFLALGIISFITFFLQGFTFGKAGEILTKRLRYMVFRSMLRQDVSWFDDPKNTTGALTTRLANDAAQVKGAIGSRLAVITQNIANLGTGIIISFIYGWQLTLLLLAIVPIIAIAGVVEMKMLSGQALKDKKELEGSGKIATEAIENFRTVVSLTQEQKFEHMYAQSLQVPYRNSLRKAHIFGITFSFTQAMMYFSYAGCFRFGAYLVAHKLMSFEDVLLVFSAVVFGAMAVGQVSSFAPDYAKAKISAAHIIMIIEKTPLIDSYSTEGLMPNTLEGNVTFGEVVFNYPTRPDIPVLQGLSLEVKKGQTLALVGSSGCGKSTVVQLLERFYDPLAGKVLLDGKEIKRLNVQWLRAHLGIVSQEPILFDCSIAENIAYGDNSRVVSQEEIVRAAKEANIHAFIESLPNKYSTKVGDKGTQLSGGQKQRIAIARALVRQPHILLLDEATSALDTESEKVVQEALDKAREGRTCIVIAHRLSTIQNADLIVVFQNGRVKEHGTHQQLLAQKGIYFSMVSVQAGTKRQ

`CCOc1ccc(C2COc3c(ccc4c3CCC(C)(C)O4)C2)c(O)c1` (stereo not drawn) [Vuti, Vutiglabridin] was tested, and the “efflux ratio (Papp(B→A)/Papp(A→B))” value [1] was “low efflux ratio”, the IC50 (MAO-A) was 288 µM and the IC50 (MAO-B) was 58.3 µM.
